Tests used:
[1] = DPPH radical scavenging activity (total antioxidant capacity); format: biochemical; conditions: ethanol, 515 nm, 45 min
[2] = GO radical scavenging activity; format: biochemical; conditions: ethanol, 428 nm, 30 min
[3] = Redox potential by differential pulse and cyclic voltammetry, glassy carbon electrode; format: physicochemical; conditions: physiological pH 7.4
Description: In an embodiment, the oxidative behaviour of the parent antioxidants (protocatechuic and gallic acids) and AntiOxBENs was evaluated at physiological pH 7.4, by differential pulse and cyclic voltammetry, using a glassy carbon working electrode. […] For pyrogallol derivatives (gallic acid, AntiOxBEN2, AntiOxBEN3), a significant decrease in redox potentials was observed (Ep=0.163-0.168 V) (Table 1).
(§1) In an embodiment, the electrochemical analytical data was obtained using a computer controlled potentiostat Autolab PGSTAT302N (Metrohm Autolab, Utrecht, Netherlands). Generally, cyclic voltammetry (CV) data was acquired at a scan rate of 50 mVs^−1. Differential pulse voltammetry (DPV) results were acquired at a step potential of 4 mV, pulse amplitude of 50 mV and scan rate of 8 mVs^−1. The electrochemical signals were monitored by the General Purpose Electrochemical System (GPES) version 4.9, software package. All electrochemical experiments were performed at room temperature in an electrochemical cell that was placed in a Faraday cage in order to minimize the contribution of background noise to the analytical signal.
In an embodiment, the process of evaluation of AntiOxBENs redox properties was conducted as follows: stock solutions of each compound (10 mM) were prepared by dissolving the appropriate amount in ethanol. The voltammetric working solutions were prepared in the electrochemical cell, at a final concentration of 0.1 mM. The […] supporting electrolyte was prepared by diluting 6.2 mL of 0.2 M dipotassium hydrogen phosphate and 43.8 mL of 0.2 M potassium dihydrogen phosphate to 100 mL. Voltammetric data was acquired in a three-electrode system consisting of a glassy carbon electrode (GCE, d=2 mm) as working electrode, a counter electrode of platinum wire and a saturated Ag/AgCl reference electrode. In an embodiment, the evaluation of AntiOxBENs lipophilic properties was performed as follows: the electrochemical cell was a four-electrode system with arrays of micro liquid-liquid interfaces (μITIES) containing two Ag/AgCl reference electrodes and two counter electrodes of Pt, one in each phase. The microporous membrane was sealed with a fluorosilicone sealant (Dow Corning 730) onto a glass cylinder which was filled with 4.0 mL of the aqueous phase, where the aliquots of AntiOxBENs solutions were added. The membrane was then immersed into the organic phase contained in the cell. The organic phase reference solution (a 2 mM BTPPACI+2 mM NaCl aqueous solution) was mechanically stabilized The aqueous supporting electrolyte solution was a Tris-HCl buffer 10 mM pH 7.0.

[4] = Lipophilicity: transfer potential at ITIES (water/1,6-dichlorohexane) by DPV; format: physicochemical; conditions: aqueous phase C=0.32 mM to 1,6-dichlorohexane, physiological pH
Description: In an embodiment, and as an example, the AntiOxBEN1 and AntiOxBEN2 lipophilic properties were evaluated using differential pulse voltammetry (DPV) at physiological pH. The used technique is often used to mimic the transfer of ionic drugs through biological membranes as the process occurs at the interface between two immiscible electrolyte solutions (ITIES). The transfer potential (Etr) at which the ionic drug, initially present in the aqueous phase (C=0.32 mM), is transferred to 1,6-dichlorohexane (DCH) phase is measured by differential pulse voltammetry (DPV). In the ITIES model, the transfer potential (Etr) becomes less positive with the increasing of the drug lipophilic character.
as §1, with “All electrochemical experiments were performed at room temperature in an electrochemical cell that was placed in a Faraday cage in order to minimize the contribution of background noise to the analytical signal.” left out

[5] = system: human hepatocellular carcinoma cells (HepG2); assay: Cytotoxicity, SRB method; format: cell-based
Description: In an embodiment, and as an example, the cytotoxicity of AntiOxBENs was assessed using monolayer cultures of human hepatocytes from hepatocellular carcinoma (HepG2) and SRB method (FIG. 8).
In an embodiment, the cytotoxicity profile of AntiOxBENs was evaluated in human hepatocellular carcinoma HepG2 cells. Human hepatocellular carcinoma HepG2 cells were cultured in high-glucose medium composed by Dulbecco's modified Eagle's medium (DMEM; D5648) supplemented with sodium pyruvate (0.11 g/L), sodium bicarbonate (1.8 g/L) and 10% fetal bovine serum (FBS) and 1% of antibiotic penicillin-streptomycin 100× solution. Cells were maintained at 37° C. in a humidified incubator with 5% CO2. HepG2 cells were seeded at density of 4×10^4 cells/mL and grown for 24 hours before treatment.
In an embodiment the cytotoxicity screening was performed as follows: cells were placed on 48-well plate (2×10^4 cells/500 μL) and then were incubated during 48 hour with AntiOxBENs concentrations ranging 25 μM to 500 μM. After incubation, sulforhodamine B (SRB) assay was used for cell density determination based on the measurement of cellular protein content. Briefly, after incubation, the medium was removed and wells rinsed with PBS […]. Cells were fixed by adding 1% acetic acid in 100% methanol for at least 2 hours at −20° C. Later, the fixation solution was discarded and the plates were dried in an oven at 37° C. Two hundred and fifty microliters of 0.5% SRB in 1% acetic acid solution was added and incubated at 37° C. for 1 h. The wells were then washed with 1% acetic acid in water and dried. Then, 500 μl of Tris (pH 10) was added and the plates were stirred for 15 min. Finally, 200 μl of each supernatant was transferred in 96-well plates and optical density was measured at 540 nm. Data are means±SEM of four independent experiments and the results are expressed as percentage of control (control=100%), which represents the cell density without any treatment in the respective time point.

[6] = system: mitochondrial permeability transition pore (mPTP); assay: Mitochondrial swelling / mitochondrial permeability transition pore opening; format: biochemical, rat; conditions: 2.5, 5, 10 μM pre-incubated 5 min before Ca2+
Description: In an embodiment, and as an example, the effects of some AntiOxBENs on mitochondrial permeability transition pore (mPTP) opening were evaluated. In general, the tested AntiOxBENs had no effect per se on mPTP opening for all tested concentrations.
Increasing concentrations of AntiOxBENs (2.5-10 μM) were added to the reaction medium (200 mM sucrose, 1 mM KH2PO4, 10 mM Tris (pH 7.4), 5 mM succinate and 10 μM EGTA supplemented with 1.5 μM rotenone), in the presence of RLM (1 mg), and allowed to incubate for a 5 min period before the assay. The experiments were initiated by the addition of a suitable concentration of Ca^2+ (15-50 μM), titrated every day. […] The reaction was stirred continuously and the temperature maintained at 37° C.

Row | Ep (redox potential) ([3]; listed as MitoBEN3) [V] | SMILES | IC50 [1] [µM] | IC50 [2] [µM] | Ep (redox potential) [3] [V] | transfer potential (Etr) [4] [V] | toxicity / effect on HepG2 cell proliferation ([5]; HepG2, 48 hour, 25 μM to 500 μM, SRB) | concentrations at which cell proliferation was stimulated ([5]; HepG2, 48 hour, SRB) | Ep (redox potential) ([3]; listed as MitoBEN2) [V] | concentration-dependent inhibition of calcium-dependent mPTP opening [6] | concentrations at which cell proliferation was significantly inhibited ([5]; human, 48 h)
1 | – | O=C(NCCCCCC[P+](c1ccccc1)(c1ccccc1)c1ccccc1)c1ccc(O)c(O)c1.[Br-] [AntiOxBEN1, 6-(3,4-dihydroxybenzamido)hexyltriphenylphosphonium bromide] | 27.3 | 4.3 | 0.224 | 0.405 | small inhibition of cell proliferation for lower concentrations | higher than 100 μM | – | – | –
2 | – | O=C(NCCCCCC[P+](c1ccccc1)(c1ccccc1)c1ccccc1)c1cc(O)c(O)c(O)c1.[Br-] [AntiOxBEN2, 6-(3,4,5-trihydroxybenzamido)hexyltriphenylphosphonium bromide] | 18.3 | 3 | – | 0.495 | – | lower than 250 μM | 0.168 | – | –
3 | 0.164 | O=C(CCCCC[P+](c1ccccc1)(c1ccccc1)c1ccccc1)NCCCCCCNC(=O)c1cc(O)c(O)c(O)c1.[Br-] [AntiOxBEN3, [5-(6-(3,4,5-trihydroxybenzamido)hexylamino)carbonylpentyl]triphenylphosphonium bromide] | 18.7 | 3.4 | – | – | – | – | – | caused a concentration-dependent inhibition | higher than 250 μM

— patent publication US11078222B2, “Hydroxybenzoic acid derivatives, methods and uses thereof” (UNiVERSIDADE DO PORTO, priority 2016, dated 2021)
